Test results: article PMC8245553, “Identification of natural product modulators of Merkel cell carcinoma cell growth and survival” (Scientific Reports, 2021)

Test system: MKL-1 (VP-MCC) cells
Experiment: Differential growth inhibition/cytotoxicity assay (CellTiterGlo/XTT), MKL-1
Conditions: Homo sapiens, MKL-1, 72 h, read-out: IC50 (ave ± sd)

CC1(C)CCC(c2ccc(Cl)cc2)=C(CN2CCN(c3ccc(C(=O)NS(=O)(=O)c4ccc(N[C@H](CCN5CCOCC5)CSc5ccccc5)c(S(=O)(=O)C(F)(F)F)c4)cc3)CC2)C1 [Navitoclax]
IC50: 200 ± 29 nM
